Source: paper PMC11157767 (Molecular Cancer, 2024)

Test system: TFG-MET allograft tumors
Test: RNA-sequencing, differential expression and GSEA of TFG-MET allograft tumors
Assay type: in vivo, mouse
Procedure: Error bars display standard error of mean, statistical significance was determined using t-test analysis. (****;p<0.0001, ***;p<0.001, **;p<0.01, *;p<0.05). […] Each dot represents an individual replicate. Error bars display standard error of the mean.
Each dot represents one gene.

[1] = GSEA CAP vs Veh, C5 GO CC, padj 0.0837675
[2] = GSEA CAP vs Veh, C5 GO CC, padj 0.118081
[3] = GSEA CAP vs Veh, C5 GO CC, padj 0.15025
[4] = GSEA CAP vs Veh, C5 GO CC, padj 0.172143
[5] = GSEA CAP vs Veh, C5 GO CC, padj 0.185573
[6] = GSEA CAP vs Veh, C5 GO CC, padj 0.189724
[7] = GSEA CAP vs Veh, C5 GO CC, padj 0.205885
[8] = GSEA CAP vs Veh, C5 GO CC, padj 0.207988
[9] = capmatinib vs vehicle, PD cohort

CNC(=O)c1ccc(-c2cnc3ncc(Cc4ccc5ncccc5c4)n3n2)cc1F [Capmatinib]
NES GOCC_TRIGLYCERIDE_RICH_PLASMA_LIPOPROTEIN_PARTICLE [1]: 1.6067
NES GOCC_VESICLE_TETHERING_COMPLEX [1]: 1.4789
NES GOCC_IMMUNOLOGICAL_SYNAPSE (GSEA CAP vs Veh, C5 GO CC, padj 0.0851978): 1.513
NES GOCC_TOR_COMPLEX (GSEA CAP vs Veh, C5 GO CC, padj 0.0863609): -1.558
NES GOCC_POTASSIUM_CHANNEL_COMPLEX (GSEA CAP vs Veh, C5 GO CC, padj 0.0898434): 1.3322
NES GOCC_PHOTORECEPTOR_OUTER_SEGMENT (GSEA CAP vs Veh, C5 GO CC, padj 0.0912598): 1.398
NES GOCC_NON_MOTILE_CILIUM (GSEA CAP vs Veh, C5 GO CC, padj 0.0963826): 1.327
NES GOCC_COLLAGEN_TRIMER (GSEA CAP vs Veh, C5 GO CC, padj 0.100203): 1.361
NES GOCC_CYCLIN_DEPENDENT_PROTEIN_KINASE_HOLOENZYME_COMPLEX (GSEA CAP vs Veh, C5 GO CC, padj 0.101289): -1.485
NES GOCC_PHAGOPHORE_ASSEMBLY_SITE_MEMBRANE (GSEA CAP vs Veh, C5 GO CC, padj 0.101632): 1.59
NES GOCC_MICROTUBULE_END (GSEA CAP vs Veh, C5 GO CC, padj 0.104588): -1.488
NES GOCC_MRNA_CLEAVAGE_AND_POLYADENYLATION_SPECIFICITY_FACTOR_COMPLEX (GSEA CAP vs Veh, C5 GO CC, padj 0.106777): -1.514
NES GOCC_PERICENTRIOLAR_MATERIAL (GSEA CAP vs Veh, C5 GO CC, padj 0.107544): -1.541
NES GOCC_SPERM_MIDPIECE (GSEA CAP vs Veh, C5 GO CC, padj 0.11014): 1.543
NES GOCC_FILAMENTOUS_ACTIN (GSEA CAP vs Veh, C5 GO CC, padj 0.113803): -1.495
NES GOCC_CONDENSED_NUCLEAR_CHROMOSOME (GSEA CAP vs Veh, C5 GO CC, padj 0.117551): -1.436
NES GOCC_ENDOPLASMIC_RETICULUM_EXIT_SITE [2]: -1.477
NES GOCC_MITOTIC_SPINDLE [2]: -1.3459
NES GOCC_TERTIARY_GRANULE_LUMEN [2]: 1.448
NES GOCC_MICROTUBULE_ORGANIZING_CENTER (GSEA CAP vs Veh, C5 GO CC, padj 0.119924): -1.201
NES GOCC_ESC_E_Z_COMPLEX (GSEA CAP vs Veh, C5 GO CC, padj 0.125326): -1.503
NES GOCC_MITOCHONDRIAL_PROTEIN_CONTAINING_COMPLEX (GSEA CAP vs Veh, C5 GO CC, padj 0.144325): 1.2339
NES GOCC_MICROBODY_LUMEN [3]: 1.378
NES GOCC_PLATELET_DENSE_GRANULE [3]: 1.446
NES GOCC_POSTSYNAPTIC_CYTOSOL [3]: -1.504
NES GOCC_DNA_HELICASE_COMPLEX (GSEA CAP vs Veh, C5 GO CC, padj 0.150544): -1.462
NES GOCC_H4_H2A_HISTONE_ACETYLTRANSFERASE_COMPLEX (GSEA CAP vs Veh, C5 GO CC, padj 0.153451): -1.479
NES GOCC_T_TUBULE (GSEA CAP vs Veh, C5 GO CC, padj 0.166785): 1.333
NES GOCC_CELL_DIVISION_SITE [4]: -1.364
NES GOCC_CILIARY_MEMBRANE [4]: 1.297
NES GOCC_NUCLEAR_INNER_MEMBRANE [4]: -1.39
NES GOCC_SPERM_PRINCIPAL_PIECE [4]: 1.449
NES GOCC_PROTEIN_KINASE_COMPLEX (GSEA CAP vs Veh, C5 GO CC, padj 0.174487): -1.355
NES GOCC_SARCOPLASMIC_RETICULUM_MEMBRANE (GSEA CAP vs Veh, C5 GO CC, padj 0.176238): 1.347
NES GOCC_TRANSCRIPTION_FACTOR_TFIID_COMPLEX (GSEA CAP vs Veh, C5 GO CC, padj 0.181046): -1.393
NES GOCC_ENDOSOME_LUMEN [5]: 1.406
NES GOCC_SPECIFIC_GRANULE_LUMEN [5]: 1.358
NES GOCC_CLATHRIN_ADAPTOR_COMPLEX [6]: 1.366
NES GOCC_MITOTIC_SPINDLE_POLE [6]: -1.382
NES GOCC_MEMBRANE_MICRODOMAIN (GSEA CAP vs Veh, C5 GO CC, padj 0.192589): 1.19
NES GOCC_CELL_BODY_MEMBRANE (GSEA CAP vs Veh, C5 GO CC, padj 0.197703): 1.35
NES GOCC_VACUOLAR_PROTON_TRANSPORTING_V_TYPE_ATPASE_COMPLEX (GSEA CAP vs Veh, C5 GO CC, padj 0.198626): 1.413
NES GOCC_DENDRITIC_SHAFT [7]: 1.333
NES GOCC_NUCLEAR_OUTER_MEMBRANE [7]: -1.409
NES GOCC_SAGA_TYPE_COMPLEX (GSEA CAP vs Veh, C5 GO CC, padj 0.206418): -1.409
NES GOCC_CLATHRIN_COAT [8]: 1.308
NES GOCC_PHOTORECEPTOR_INNER_SEGMENT [8]: 1.275
NES GOCC_INTEGRAL_COMPONENT_OF_SYNAPTIC_VESICLE_MEMBRANE (GSEA CAP vs Veh, C5 GO CC, padj 0.210702): 1.319
expression of Mapk signature genes in tumors (RNA-sequencing of treated allograft tumors): significant downregulation
GSEA NES, PID_Atm_pathway [9]: -1.751
GSEA NES, PID_Atr_pathway [9]: -2.041
expression of genes involved in the DNA repair machinery (capmatinib-treated vs vehicle tumors, PD cohort): downregulated
